{"source": "patent EP0614465B1", "about": "“HYBRID PROTEIN BETWEEN CS FROM […] HBsAG” (SMITHKLINE BEECHAM BIOLOGICALS S.A., priority 1991, dated 1993)", "tested_on": "R32tet32 antigen", "experiment": "immunogenicity in mice: anti-R32tet32 (anti-repeat) antibody titer by ELISA", "assay_type": "in vivo, Balb/C mice", "conditions": "effect of 3D-MPL (50 µg/dose) added to (RTS,S) on A1(OH)3"}
{"substance": "3 Deacylated monophosphoryl lipid A [3D-MPL]", "values": [{"measurement": "primary antibody response in mice", "result": "enhanced"}]}
